Reference: PubChem BioAssay (NCI)
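The concentration for 50% growth inhibition is given as GI50. Definition used: TGI = concentration required for complete inhibition of growth.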

Experiments:
Test in all cases: DTP human tumour cell line panel, 384-well format
A498 renal = test system: A498 renal
SK-MEL-2 melanoma = test system: SK-MEL-2 melanoma
UO-31 renal = test system: UO-31 renal
NCI-H322M lung = test system: NCI-H322M lung
PC-3 prostate = test system: PC-3 prostate
OVCAR-3 ovarian = test system: OVCAR-3 ovarian
BT-549 breast = test system: BT-549 breast
SNB-75 CNS = test system: SNB-75 CNS
EKVX NSCLC = test system: EKVX NSCLC
TK-10 renal = test system: TK-10 renal
SF-268 CNS = test system: SF-268 CNS
RPMI-8226 leukemia = test system: RPMI-8226 leukemia
786-0 renal = test system: 786-0 renal
SN12C renal = test system: SN12C renal
DU-145 prostate = test system: DU-145 prostate
SK-MEL-5 melanoma = test system: SK-MEL-5 melanoma
CCRF-CEM leukemia = test system: CCRF-CEM leukemia
HS 578T breast = test system: HS 578T breast
T-47D breast = test system: T-47D breast
MDA-MB-435 melanoma = test system: MDA-MB-435 melanoma
HL-60(TB) leukemia = test system: HL-60(TB) leukemia
SF-539 CNS = test system: SF-539 CNS
NCI-H522 lung = test system: NCI-H522 lung
SR leukemia = test system: SR leukemia
HOP-62 NSCLC = test system: HOP-62 NSCLC
MDA-MB-468 breast = test system: MDA-MB-468 breast
SK-MEL-28 melanoma = test system: SK-MEL-28 melanoma
NCI/ADR-RES ovarian = test system: NCI/ADR-RES ovarian
UACC-257 melanoma = test system: UACC-257 melanoma
M14 melanoma = test system: M14 melanoma
HCC-2998 colon = test system: HCC-2998 colon
KM12 colon = test system: KM12 colon
MDA-MB-231 breast = test system: MDA-MB-231 breast
MCF7 breast = test system: MCF7 breast
SW-620 colon = test system: SW-620 colon
ACHN renal = test system: ACHN renal
MOLT-4 leukemia = test system: MOLT-4 leukemia
NCI-H226 lung = test system: NCI-H226 lung
CAKI-1 renal = test system: CAKI-1 renal
HT29 colon = test system: HT29 colon
OVCAR-5 ovarian = test system: OVCAR-5 ovarian
IGROV1 ovarian = test system: IGROV1 ovarian
U251 glioblastoma = test system: U251 glioblastoma
SNB-19 CNS = test system: SNB-19 CNS
SK-OV-3 ovarian = test system: SK-OV-3 ovarian
LOX IMVI melanoma = test system: LOX IMVI melanoma
K-562 leukemia = test system: K-562 leukemia
HCT-116 colon = test system: HCT-116 colon
NCI-H23 lung = test system: NCI-H23 lung
MALME-3M melanoma = test system: MALME-3M melanoma
SF-295 CNS = test system: SF-295 CNS
HCT-15 colon = test system: HCT-15 colon
OVCAR-4 ovarian = test system: OVCAR-4 ovarian
HOP-92 NSCLC = test system: HOP-92 NSCLC
UACC-62 melanoma = test system: UACC-62 melanoma
NCI-H460 NSCLC = test system: NCI-H460 NSCLC
COLO 205 colon = test system: COLO 205 colon
RXF 393 renal = test system: RXF 393 renal
A549 NSCLC = test system: A549 NSCLC

For `NC1(Cc2ccc(Cl)cc2)CCN(c2ncnc3[nH]ccc23)CC1`, the GI50 (A498 renal) was 3.16 µM, the TGI (A498 renal) was 14.8 µM and the GI50 (SK-MEL-2 melanoma) was 7.52 µM. It also gave a TGI (SK-MEL-2 melanoma) of 19 µM, a GI50 (UO-31 renal) of 4.28 µM and a TGI (UO-31 renal) of 17.6 µM. It also gave a GI50 (NCI-H322M lung) of 4.85 µM, a TGI (NCI-H322M lung) of 17.6 µM and a GI50 (PC-3 prostate) of 3.11 µM. For the same compound, the TGI (PC-3 prostate) was 15.8 µM, the GI50 (OVCAR-3 ovarian) was 9.12 µM and the TGI (OVCAR-3 ovarian) was 21.4 µM. The GI50 (BT-549 breast) was 1.63 µM, the TGI (BT-549 breast) was 5.8 µM and the GI50 (SNB-75 CNS) was 1.54 µM. The TGI (SNB-75 CNS) was 7.76 µM, the GI50 (EKVX NSCLC) was 4.51 µM and the TGI (EKVX NSCLC) was 16.5 µM. It also gave a GI50 (TK-10 renal) of 3.15 µM, a TGI (TK-10 renal) of 13.3 µM and a GI50 (SF-268 CNS) of 5.54 µM. The TGI (SF-268 CNS) was 18.2 µM, the GI50 (RPMI-8226 leukemia) was 1.36 µM and the TGI (RPMI-8226 leukemia) was 4.48 µM. It also gave a GI50 ([…]-0 renal) of 2.33 µM, a TGI (786-0 renal) of 12.1 µM and a GI50 (SN12C renal) of 3.46 µM. For the same compound, the TGI (SN12C renal) was 14.9 µM, the GI50 (DU-145 prostate) was 8.33 µM and the TGI (DU-145 prostate) was 23 µM. For the same compound, the GI50 (SK-MEL-5 melanoma) was 3.17 µM, the TGI (SK-MEL-5 melanoma) was 12.8 µM and the GI50 (CCRF-CEM leukemia) was 2.31 µM. The TGI (CCRF-CEM leukemia) was 10.8 µM, the GI50 (HS 578T breast) was 1.21 µM and the TGI (HS 578T breast) was 6.14 µM. For the same compound, the GI50 (T-47D breast) was 2.35 µM, the TGI (T-47D breast) was 12.7 µM and the GI50 (MDA-MB-435 melanoma) was 2.41 µM. It also gave a TGI (MDA-MB-435 melanoma) of 6.35 µM, a GI50 (HL-60(TB) leukemia) of 3.01 µM and a TGI (HL-60(TB) leukemia) of 9.25 µM. The GI50 (SF-539 CNS) was 1.46 µM, the TGI (SF-539 CNS) was 7.16 µM and the GI50 (NCI-H522 lung) was 5.41 µM. It also gave a TGI (NCI-H522 lung) of 19.5 µM, a GI50 (SR leukemia) of 2.07 µM and a TGI (SR leukemia) of 4 µM. The GI50 (HOP-62 NSCLC) was 4.77 µM, the TGI (HOP-62 NSCLC) was 17.2 µM and the GI50 (MDA-MB-468 breast) was 1.61 µM. For the same compound, the TGI (MDA-MB-468 breast) was 6.55 µM, the GI50 (SK-MEL-28 melanoma) was 2.26 µM and the TGI (SK-MEL-28 melanoma) was 5.94 µM. For the same compound, the GI50 (NCI/ADR-RES ovarian) was 8.66 µM, the TGI (NCI/ADR-RES ovarian) was 21.1 µM and the GI50 (UACC-257 melanoma) was 1.93 µM. It also gave a TGI (UACC-257 melanoma) of 3.96 µM, a GI50 (M14 melanoma) of 4.51 µM and a TGI (M14 melanoma) of 16.1 µM. It also gave a GI50 (HCC-2998 colon) of 1.96 µM, a TGI (HCC-2998 colon) of 5.94 µM and a GI50 (KM12 colon) of 2.25 µM. It also gave a TGI (KM12 colon) of 11 µM, a GI50 (MDA-MB-231 breast) of 4.76 µM and a TGI (MDA-MB-231 breast) of 16.4 µM. For the same compound, the GI50 (MCF7 breast) was 2.55 µM, the TGI (MCF7 breast) was 12.7 µM and the GI50 (SW-620 colon) was 4.6 µM. For the same compound, the TGI (SW-620 colon) was 16.2 µM, the GI50 (ACHN renal) was 3.89 µM and the TGI (ACHN renal) was 15.8 µM. The GI50 (MOLT-4 leukemia) was 1.09 µM, the TGI (MOLT-4 leukemia) was 2.6 µM and the GI50 (NCI-H226 lung) was 5.53 µM. It also gave a TGI (NCI-H226 lung) of 18.1 µM, a GI50 (CAKI-1 renal) of 3.96 µM and a TGI (CAKI-1 renal) of 16 µM. It also gave a GI50 (HT29 colon) of 2.63 µM, a TGI (HT29 colon) of 12.3 µM and a GI50 (OVCAR-5 ovarian) of 6.84 µM. It also gave a TGI (OVCAR-5 ovarian) of 26.7 µM, a GI50 (IGROV1 ovarian) of 1.53 µM and a TGI (IGROV1 ovarian) of 9.67 µM. For the same compound, the GI50 (U251 glioblastoma) was 4.4 µM, the TGI (U251 glioblastoma) was 15.7 µM and the GI50 (SNB-19 CNS) was 3.28 µM. For the same compound, the TGI (SNB-19 CNS) was 13.5 µM, the GI50 (SK-OV-3 ovarian) was 3.84 µM and the TGI (SK-OV-3 ovarian) was 17.3 µM. For the same compound, the GI50 (LOX IMVI melanoma) was 4.07 µM, the TGI (LOX IMVI melanoma) was 13.7 µM and the GI50 (K-562 leukemia) was 3.4 µM. The TGI (K-562 leukemia) was 15.7 µM, the GI50 (HCT-116 colon) was 3.67 µM and the TGI (HCT-116 colon) was 13.4 µM. The GI50 (NCI-H23 lung) was 4 µM, the TGI (NCI-H23 lung) was 16 µM and the GI50 (MALME-3M melanoma) was 2.25 µM. For the same compound, the TGI (MALME-3M melanoma) was 5.8 µM, the GI50 (SF-295 CNS) was 2.74 µM and the TGI (SF-295 CNS) was 14.8 µM. It also gave a GI50 (HCT-15 colon) of 3.93 µM, a TGI (HCT-15 colon) of 17.8 µM and a GI50 (OVCAR-4 ovarian) of 16.4 µM. It also gave a TGI (OVCAR-4 ovarian) of 43.9 µM, a GI50 (HOP-92 NSCLC) of 2.2 µM and a TGI (HOP-92 NSCLC) of 9.62 µM. It also gave a GI50 (UACC-62 melanoma) of 4.76 µM, a TGI (UACC-62 melanoma) of 16.4 µM and a GI50 (NCI-H460 NSCLC) of 1.76 µM. For the same compound, the TGI (NCI-H460 NSCLC) was 9.36 µM, the GI50 (COLO 205 colon) was 3.34 µM and the TGI (COLO 205 colon) was 12.3 µM. The GI50 (RXF 393 renal) was 2.14 µM, the TGI (RXF 393 renal) was 7.4 µM and the GI50 (A549 NSCLC) was 4.27 µM. For the same compound, the TGI (A549 NSCLC) was 15.5 µM.
